Experimental data as given in patent US20240295560A1, “PANCREATIC CANCER DIAGNOSIS ASSISTANCE METHOD AND PHARMACEUTICAL COMPOUND FOR TREATING PANCREATIC CANCER” (TOKYO METROPOLITAN GERIATRIC HOSPITAL AND INSTITUTE OF …, priority 2020, published 2024).

What was measured:
[1] = tested on: MIA PaCa-2 cells (GM2-positive vs GM2-negative); assay: sensitivity of GM2-expressing cells to anticancer drugs, proliferation rate by ATP assay; assay type: cell-based; details: drug at 10 μM or 100 μM, incubated 3 days, ATP assay (FIG. 6)
Protocol: In this example, the sensitivity of GM2-expressing cells to anticancer drugs (gemcitabine, fluorouracil [5-FU], and Abraxane) were examined.
MIA PaCa-2 cells (3.0×10^3 cells/well) were seeded in 96-well plates. After 1 day, each anticancer drug was added thereto at a concentration of 10 μM or 100 μM. The cells were incubated for 3 days, and the proliferation rate of the cells was measured by ATP assay.

[2] = tested on: GM2 expression in MIA PaCa-2 cells; assay: GM2 expression and cell clusters in three-dimensional culture with AMP-dNM or MAP kinase inhibitor; assay type: cell-based
Protocol: MIA PaCa-2 cells were cultured on ultra-low attachment plates at a concentration of 1.0×10^4 cells/well (24-well plate: Corning) for 7 days. Cell clusters were obtained. Therefore, the number of GM2-positive cells increased in three-dimensional culture. In this example, the effects of AMP-dNM or MAP kinase inhibitor on GM2 expression were examined. Under the same conditions as in Example 5, MIA PaCa-2 cells were three-dimensionally cultured, and the expression of GM2 was measured by adding AMP-dNM (10 μM) which is an inhibitor of glycolipid synthesis, or PD0325901 (1 μM) which is a MAP kinase inhibitor.

[3] = AMP-dNM 10 μM, three-dimensional culture of MIA PaCa-2 cells (FIG. 8(B))

O=c1[nH]cc(F)c(=O)[nH]1 [fluorouracil [5-FU], fluorouracil]
proliferation rate of GM2-positive cells compared with GM2-negative cells [1]: effective against GM2-positive cells

Nc1ccn([C@@H]2O[C@H](CO)[C@@H](O)C2(F)F)c(=O)n1 [gemcitabine]
proliferation rate of GM2-positive cells compared with GM2-negative cells [1]: effective against GM2-positive cells

O=C(NOC[C@H](O)CO)c1ccc(F)c(F)c1Nc1ccc(I)cc1F [PD0325901]
GM2 expression ([2]; PD0325901 1 μM, three-dimensional culture of MIA PaCa-2 cells (FIG. 8(C))): decreased | size of cell clusters ([2]; PD0325901 1 μM, three-dimensional culture of MIA PaCa-2 cells (FIG. 8(D))): clearly reduced

OC[C@@H]1[C@@H](O)[C@H](O)[C@@H](O)CN1CCCCCOCC12CC3CC(CC(C3)C1)C2 [AMP-dNM, N-(5′-adamantane-1′-yl-methoxy)-pentyl-1-deoxynojirimycin]
GM2 expression ([2]; AMP-dNM 10 μM, three-dimensional culture of MIA PaCa-2 cells (FIG. 8(A))): decreased | microvilli in the cell clusters [2, 3]: hardly observed | vacuoles in the cell clusters [2, 3]: conspicuously observed
